Data from ChEMBL document CHEMBL4732190, “Identification of Potent and Long-Acting Single-Chain Peptide Mimetics of Human Relaxin-2 for Cardiovascular Diseases” (J Med Chem, 2021).
Values after ≈ are worked out from the molar mass of the structure shown. *1 amine or outer side, *2 acyl side, *3 side chain or, on linkers, in order; H or OH if unused. Where a SMILES comes first, the peptide text is derived from it. [ ]: non-standard residue; d: D form. The star is where a group is joined. X9 = NC(=O)CC[C@H](N*)C(=O)CCCCCCCCCCCCCCCCCC(=O)O; X8 = NC(=O)CC[C@H](N*)C(=O)CCCCCCCCCCCCCCCC(=O)O; β2hAla(2S) = C[C@@H](CN[*:1])C(=O)[*:2]; X4 = CCCC[C@H](O[*:1])C(=O)[*:2]; hLys = NCCCCC[C@H](N)C(=O)O; Nle = CCCC[C@H](N)C(=O)O; Orn = NCCC[C@H](N)C(=O)O

Tests used:
[1] = Stability in rat plasma assessed as parent compound remaining level at 5 uM remaining after 4 hrs; format: ADME, cell-free; conditions: read-out: Stabilty
[2] = Stability in human plasma assessed as parent compound remaining level at 5 uM remaining after 4 hrs; format: ADME, cell-free; conditions: read-out: Stabilty
[3] = Aqueous solubility of compound in acetate buffer at pH 4.5 measured after 24 hrs by UPLC analysis; format: physicochemical
[4] = molecular target: T1, Relaxin receptor 1 (Homo sapiens, UniProt Q9HBX9); experiment: Agonist activity at RXFP1 endogenously expressed in human OVCAR-5 cells assessed as increase in IBMX-induced cAMP accumulation pretreated with IBMX for 40 mins followed by compound addition and measured after 30 mins by HTRF assay; format: functional, cell-based
T1 sequence (Q9HBX9 whole entry): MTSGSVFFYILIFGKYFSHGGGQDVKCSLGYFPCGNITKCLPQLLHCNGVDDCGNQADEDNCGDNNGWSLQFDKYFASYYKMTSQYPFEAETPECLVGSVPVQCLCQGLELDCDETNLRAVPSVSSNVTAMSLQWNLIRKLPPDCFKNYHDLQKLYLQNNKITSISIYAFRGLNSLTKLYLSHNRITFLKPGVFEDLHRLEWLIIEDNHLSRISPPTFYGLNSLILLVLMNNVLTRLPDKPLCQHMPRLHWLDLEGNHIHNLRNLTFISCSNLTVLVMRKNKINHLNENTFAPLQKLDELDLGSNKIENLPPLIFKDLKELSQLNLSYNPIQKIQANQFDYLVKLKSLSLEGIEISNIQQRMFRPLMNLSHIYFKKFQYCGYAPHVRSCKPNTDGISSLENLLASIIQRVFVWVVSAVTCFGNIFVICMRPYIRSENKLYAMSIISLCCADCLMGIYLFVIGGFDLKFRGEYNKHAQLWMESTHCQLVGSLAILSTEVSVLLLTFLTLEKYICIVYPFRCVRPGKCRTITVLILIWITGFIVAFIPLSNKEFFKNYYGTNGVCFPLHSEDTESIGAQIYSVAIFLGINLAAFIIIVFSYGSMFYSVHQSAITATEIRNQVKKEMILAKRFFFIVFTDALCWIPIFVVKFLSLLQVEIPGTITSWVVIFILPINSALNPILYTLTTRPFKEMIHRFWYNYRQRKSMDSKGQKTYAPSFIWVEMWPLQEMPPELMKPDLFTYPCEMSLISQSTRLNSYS

[5] = Aqueous solubility of compound in phosphate buffer at pH 7.4 measured after 24 hrs by UPLC analysis; format: physicochemical
[6] = molecular target: T2, Relaxin receptor 1 (Homo sapiens) (UniProt Q9HBX9); experiment: Agonist activity at RXFP1 endogenously expressed in human OVCAR-5 cells assessed as increase in IBMX-induced cAMP accumulation pretreated with IBMX for 40 mins followed by compound addition and measured after 30 mins by HTRF assay relative to relaxin; format: functional, cell-based; conditions: filed as agonist
T2 sequence (whole entry): T1 sequence (Q9HBX9 whole entry)

[7] = molecular target: T1, Relaxin receptor 1; experiment: Agonist activity at RXFP1 endogenously expressed in human OVCAR-5 cells assessed as increase in IBMX-induced cAMP accumulation pretreated with IBMX for 40 mins followed by compound addition and measured after 30 mins in presence of 2 % HSA by HTRF assay; format: functional, cell-based

Row | Molecule | remaining at 4 h, 5 µM [1] [%] | remaining at 4 h, 5 µM [2] [%] | solubility at 24 h [3] [µg/mL] | EC50 [4] [nM] | solubility at 24 h [5] [µg/mL] | Emax [6] [%] | EC50 [7] [nM]
1 | CC[C@H](C)[C@H](NC(=O)[C@H](CCC(N)=O)NC(=O)[C@H](C)NC(=O)[C@H](CCCNC(=N)N)NC(=O)[C@@H](NC(=O)[C@H](CC(C)C)NC(=O)[C@H](CCC(=O)O)NC(=O)[C@H](CCCNC(=N)N)NC(=O)CNC(=O)[C@H](CO)NC(=O)[C@H](CC(C)C)NC(=O)[C@H](CCCCN)NC(=O)[C@@H](NC(=O)[C@@H](NC(C)=O)C(C)C)[C@@H](C)CC)C(C)C)C(=O)NC[C@H](C)C(=O)N[C@H](C(=O)N[C@@H](CO)C(=O)NCC(=O)N[C@@H](CCSC)C(=O)N[C@@H](CO)C(=O)N[C@H](C(=O)N[C@@H](Cc1c[nH]c2ccccc12)C(=O)N[C@@H](CO)C(=O)N[C@@H](CCCCN)C(=O)N[C@@H](CCCNC(=N)N)C(=O)N[C@@H](CCCCN)C(=O)N[C@@H](CCCCN)C(N)=O)[C@@H](C)O)[C@@H](C)CC (HELM PEPTIDE1{[ac].V.I.K.L.S.G.R.E.L.V.R.A.Q.I.[C[C@@H](CN[*:1])C(=O)[*:2]].I.S.G.M.S.T.W.S.K.R.K.K.[am]}$$$$V2.0) | 37 | 54 | 5700 (≈ 1840 µM) | 202 | 4600 (≈ 1480 µM) | 90 | –
2 | H-VIKLSGRELVRAQIAISGMSTWSKRSL-NH2 | 2 | 3 | 1900 | – | 14 | – | –
3 | CCCC[C@H](NC(=O)[C@H](CCSC)NC(=O)CNC(=O)[C@H](CCC(=O)O)NC(=O)[C@@H](C)CNC(=O)[C@@H](C)CNC(=O)[C@@H](NC(=O)[C@H](CCCCCNC(C)=O)NC(=O)[C@H](CCCCN)NC(=O)[C@H](C)NC(=O)[C@H](CCCNC(=N)N)NC(=O)[C@@H](NC(=O)[C@H](CCCCN)NC(=O)[C@H](CCC(=O)O)NC(=O)[C@H](CCCNC(=N)N)NC(=O)[C@H](CCC(=O)O)NC(=O)CNC(=O)[C@H](CCC(=O)O)NC(=O)[C@H](CC(C)C)NC(C)=O)C(C)C)[C@@H](C)CC)C(=O)N[C@@H](CCCCN)C(=O)N[C@@H](CCCCCNC(C)=O)C(=O)N[C@@H](CO)C(=O)N[C@H](C(=O)N[C@@H](Cc1c[nH]c2ccccc12)C(=O)N[C@@H](CO)C(=O)NC[C@H](C)C(=O)N[C@@H](CCCNC(=N)N)C(=O)N[C@@H](CCCCN)C(=O)N[C@@H](CCCCN)C(=O)N[C@@H](CCCCCNC(C)=O)C(=O)N[C@@H](CCCCN)C(=O)N[C@@H](CCC(=O)O)C(=O)N[C@@H](CCC(=O)O)C(=O)N[C@@H](CCC(N)=O)C(=O)CCCCCCCCCCCCCCCCCC(=O)O)[C@@H](C)O (Ac-LEGEREKVRAK[hLys](Ac)I[β2hAla(2S)][β2hAla(2S)]EGM[Nle]K[hLys](Ac)STWS[β2hAla(2S)]RKK[hLys](Ac)KEE-X9) | – | – | – | 368 | – | 75 | > 2000
4 | CCCC[C@H](NC(=O)[C@H](CCSC)NC(=O)CNC(=O)[C@H](CCC(=O)O)NC(=O)[C@@H](C)CNC(=O)[C@@H](C)CNC(=O)[C@@H](NC(=O)[C@H](CCCCCNC(C)=O)NC(=O)[C@H](CCCCN)NC(=O)[C@H](C)NC(=O)[C@H](CCCNC(=N)N)NC(=O)[C@@H](NC(=O)[C@H](CCCCN)NC(=O)[C@H](CCC(=O)O)NC(=O)[C@H](CCCNC(=N)N)NC(=O)[C@H](CCC(=O)O)NC(=O)CNC(=O)[C@H](CCC(=O)O)NC(=O)[C@H](CC(C)C)NC(C)=O)C(C)C)[C@@H](C)CC)C(=O)N[C@@H](CCCCN)C(=O)N[C@@H](CCCCCNC(C)=O)C(=O)N[C@@H](CO)C(=O)N[C@H](C(=O)N[C@@H](Cc1c[nH]c2ccccc12)C(=O)N[C@@H](CO)C(=O)NC[C@H](C)C(=O)N[C@@H](CCCNC(=N)N)C(=O)N[C@@H](CCCCN)C(=O)N[C@@H](CCCCN)C(=O)N[C@@H](CCCCCNC(C)=O)C(=O)N[C@@H](CCCCN)C(=O)N[C@@H](CCC(=O)O)C(=O)N[C@@H](CCC(=O)O)C(=O)N[C@@H](CCC(N)=O)C(=O)CCCCCCCCCCCCCCCC(=O)O)[C@@H](C)O (Ac-LEGEREKVRAK[hLys](Ac)I[β2hAla(2S)][β2hAla(2S)]EGM[Nle]K[hLys](Ac)STWS[β2hAla(2S)]RKK[hLys](Ac)KEE-X8) | – | – | – | 809 | – | 70 | > 2000

Results, then the molecule that gave them:

Row | remaining at 4 h, 5 µM [1] [%] | remaining at 4 h, 5 µM [2] [%] | solubility at 24 h [3] [µg/mL] | EC50 [4] [nM] | solubility at 24 h [5] [µg/mL] | Emax [6] [%] | EC50 [7] [nM] | Molecule
5 | 60 | 74 | 4000 (≈ 1210 µM) | 18 | 4000 (≈ 1210 µM) | 93 | – | CCCC[C@H](OC(=O)CNC(=O)[C@H](CCC(=O)O)NC(=O)[C@@H](C)CNC(=O)[C@@H](C)CNC(=O)[C@@H](NC(=O)[C@H](CCCCCNC(C)=O)NC(=O)[C@@H](C)CNC(=O)[C@@H](C)CNC(=O)[C@H](CCCCN)NC(=O)[C@H](C)NC(=O)[C@H](CCCNC(=N)N)NC(=O)[C@@H](NC(=O)[C@H](CCCCN)NC(=O)[C@H](CCC(=O)O)NC(=O)[C@H](CCCNC(=N)N)NC(=O)CNC(=O)[C@H](CCC(=O)O)NC(=O)[C@H](CC(C)C)NC(C)=O)C(C)C)[C@@H](C)CC)C(=O)N[C@@H](CO)C(=O)N[C@H](C(=O)N[C@@H](Cc1c[nH]c2ccccc12)C(=O)N[C@@H](CO)C(=O)NC[C@H](C)C(=O)N[C@@H](CCCNC(=N)N)C(=O)N[C@@H](CCCCN)C(=O)N[C@@H](CCCN)C(=O)N[C@@H](CCCCCNC(C)=O)C(N)=O)[C@@H](C)O (Ac-LEGREKVRAK[β2hAla(2S)][β2hAla(2S)][hLys](Ac)I[β2hAla(2S)][β2hAla(2S)]EG[X4]STWS[β2hAla(2S)]RK[Orn][hLys](Ac)-NH2)
6 | 101 | 93 | 6100 (≈ 2190 µM) | 14 | 5800 (≈ 2080 µM) | 99 | – | CC[C@H](C)[C@H](NC(=O)[C@H](CCC(N)=O)NC(=O)[C@H](C)NC(=O)[C@H](CCCNC(=N)N)NC(=O)[C@@H](NC(=O)[C@H](CCCCN)NC(=O)[C@H](CCC(=O)O)NC(=O)[C@H](CCCNC(=N)N)NC(=O)CNC(=O)[C@H](CCC(=O)O)NC(=O)[C@H](CC(C)C)NC(C)=O)C(C)C)C(=O)NC[C@H](C)C(=O)NC[C@H](C)C(=O)N[C@@H](CCC(=O)O)C(=O)NCC(=O)N[C@@H](CCSC)C(=O)N[C@@H](CO)C(=O)N[C@H](C(=O)N[C@@H](Cc1c[nH]c2ccccc12)C(=O)N[C@@H](CO)C(=O)NC[C@H](C)C(=O)N[C@@H](CCCNC(=N)N)C(=O)N[C@@H](CCCCN)C(=O)N[C@@H](CCCCN)C(N)=O)[C@@H](C)O (Ac-LEGREKVRAQI[β2hAla(2S)][β2hAla(2S)]EGMSTWS[β2hAla(2S)]RKK-NH2)
7 | 29 | 79 | 4800 (≈ 1490 µM) | 54 | 3800 (≈ 1180 µM) | 95 | – | CC[C@H](C)[C@H](NC[C@@H](C)CNC(=O)[C@@H](NC(=O)[C@H](CCC(N)=O)NC(=O)[C@H](C)NC(=O)[C@H](CCCNC(=N)N)NC(=O)[C@@H](NC(=O)[C@H](CCCCN)NC(=O)[C@H](CCC(=O)O)NC(=O)[C@H](CCCNC(=N)N)NC(=O)CNC(=O)[C@H](CCC(=O)O)NC(=O)[C@H](CC(C)C)NC(=O)[C@H](CCCCN)NC(=O)[C@@H](NC(=O)[C@@H](NC(C)=O)C(C)C)[C@@H](C)CC)C(C)C)[C@@H](C)CC)C(=O)N[C@@H](CCC(=O)O)C(=O)NCC(=O)N[C@@H](CCSC)C(=O)N[C@@H](CO)C(=O)N[C@@H](CCCCN)C(=O)N[C@@H](Cc1c[nH]c2ccccc12)C(=O)N[C@@H](CO)C(=O)N[C@@H](CCCCN)C(=O)N[C@@H](CCCNC(=N)N)C(=O)N[C@@H](CCCCN)C(=O)N[C@@H](CCCCN)C(N)=O
